{"source": "patent US20250304551A1", "about": "(SHANGHAI APEIRON THERAPEUTICS COMPANY LIMITED, priority 2022, published 2025)", "key": {"HT29 cells": {"test_system": "HT29 cells", "assay": "CyQuant cell proliferation activity test, HT29", "type": "cell-based", "conditions": "Homo sapiens, HT-29, 72 h, HT29 2000 cells per well, 3 days incubation, initial concentration 3000 nM, IC50 by XLFIT, read-out: HT-29 Cell Viability_IC50_nM", "how_it_was_run": "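HT29 cells (2000/well, RPMI-1640 with 10% FBS) were plated overnight, then exposed to compound for 3 days at 37 °C, 5% CO2. Dosing was 9 concentrations, 3-fold dilutions from 3000 nM, in 0.20% DMSO. Proliferation was read with CyQuant reagent after 1 h, and IC50 derived from the curves.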"}, "OVCAR3 cells": {"test_system": "OVCAR3 cells", "assay": "Cell proliferation activity test, OVCAR3 (CyQUANT Direct)", "type": "cell-based", "conditions": "Homo sapiens, OVCAR-3, 72 h, 3 days incubation, CyQUANT fluorescence detection, read-out: OVCAR-3 Cell Viability_IC50_nM", "how_it_was_run": "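OVCAR3 cells seeded overnight, then exposed to compounds at 0-10 μM final (0.20% DMSO) for 3 days at 37° C. Cell number read by CyQUANT Direct fluorescence after 60 min at 37° C.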"}, "[1]": {"target": "T1, Human KIF18A (amino acid sequence 1-417) (Homo sapiens, UniProt Q8NI77)", "T1 construct": "purchased Viva Biotech (Shanghai) Ltd", "T1 sequence (Q8NI77 1-417)": "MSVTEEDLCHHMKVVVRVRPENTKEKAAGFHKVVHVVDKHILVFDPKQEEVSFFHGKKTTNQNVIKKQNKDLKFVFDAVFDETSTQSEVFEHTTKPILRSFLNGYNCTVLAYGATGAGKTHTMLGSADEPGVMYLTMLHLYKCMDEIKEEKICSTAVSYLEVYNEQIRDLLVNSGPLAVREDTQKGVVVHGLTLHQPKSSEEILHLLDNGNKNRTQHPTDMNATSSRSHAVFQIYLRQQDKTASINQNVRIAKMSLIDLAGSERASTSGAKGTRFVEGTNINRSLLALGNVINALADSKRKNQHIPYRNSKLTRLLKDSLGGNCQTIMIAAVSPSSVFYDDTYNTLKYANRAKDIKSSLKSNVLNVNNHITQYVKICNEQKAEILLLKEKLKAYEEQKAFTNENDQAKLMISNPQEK", "T1 sequence (Q2XVP4 whole entry partner)": "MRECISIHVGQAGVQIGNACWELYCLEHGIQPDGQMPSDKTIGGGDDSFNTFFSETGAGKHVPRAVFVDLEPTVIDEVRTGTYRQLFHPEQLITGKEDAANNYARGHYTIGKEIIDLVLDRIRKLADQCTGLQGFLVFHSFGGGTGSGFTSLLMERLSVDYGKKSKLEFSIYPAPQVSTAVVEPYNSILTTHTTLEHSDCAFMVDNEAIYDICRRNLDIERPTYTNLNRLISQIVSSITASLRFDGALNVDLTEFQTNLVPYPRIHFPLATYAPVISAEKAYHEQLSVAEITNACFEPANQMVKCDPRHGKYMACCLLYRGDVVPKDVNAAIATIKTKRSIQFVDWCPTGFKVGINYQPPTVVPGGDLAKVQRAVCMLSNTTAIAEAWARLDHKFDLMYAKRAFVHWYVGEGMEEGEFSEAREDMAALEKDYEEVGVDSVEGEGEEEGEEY", "T1 sequence (P02554 whole entry partner)": "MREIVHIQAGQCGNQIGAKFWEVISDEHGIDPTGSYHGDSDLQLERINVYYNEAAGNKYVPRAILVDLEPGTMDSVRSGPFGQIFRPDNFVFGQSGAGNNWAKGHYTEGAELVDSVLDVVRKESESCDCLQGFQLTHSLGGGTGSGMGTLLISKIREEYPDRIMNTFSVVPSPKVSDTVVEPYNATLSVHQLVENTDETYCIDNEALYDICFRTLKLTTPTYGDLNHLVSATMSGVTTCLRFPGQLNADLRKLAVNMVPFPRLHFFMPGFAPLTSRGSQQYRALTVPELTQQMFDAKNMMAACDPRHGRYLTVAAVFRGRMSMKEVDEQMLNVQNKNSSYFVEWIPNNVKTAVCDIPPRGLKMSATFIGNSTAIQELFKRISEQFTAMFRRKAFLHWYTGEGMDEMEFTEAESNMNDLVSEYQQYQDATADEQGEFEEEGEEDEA", "assay": "Enzyme activity detection experiment (ADP-Glo, KIF18A with tubulin and ATP)", "type": "biochemical", "conditions": "tubulin 60 μg/mL, ATP 25 μM, KIF18A protein 2.5 nM, 120 minutes at ambient temperature, ADP-Glo chemiluminescence", "how_it_was_run": "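KIF18A (2.5 nM) was incubated with tubulin (60 μg/mL as added), ATP (25 μM) and serially diluted compound for 120 min at ambient temperature. ADP formed was detected by ADP-Glo: reagent for 30 min, then detection reagent for 30 min in the dark, with chemiluminescence read-out.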"}}, "data": [{"molecule": "Cc1cc(-c2nnc(-c3ccc(NS(=O)(=O)CCO)cc3N3CCC4(CC3)CC4)o2)nc(N2CCC(F)(F)CC2)n1", "note": "[Example 15, N-(4-(5-(2-(4,4-difluoropiperidin-1-yl)-6-methylpyrimidin-4-yl)-1,3,4-oxadiazol-2-yl)-3-(6-azaspiro[2.5]octan-6-yl)phenyl)-2-hydroxyethane-1-sulfonamide]", "values": [{"measurement": "IC50", "setting": "HT29 cells", "result": 60, "unit": "nM"}, {"measurement": "IC50", "setting": "OVCAR3 cells", "result": 61, "unit": "nM"}, {"measurement": "IC50", "setting": "[1]", "result": 60, "unit": "nM"}]}, {"molecule": "Cc1cc(-n2cc(-c3ccc(NS(=O)(=O)[C@H](C)CO)cc3N3CCC4(CC3)CC4)nn2)nc(N2CCC(F)(F)CC2)n1", "note": "[Example 92, (2R)—N-(3-{6-azaspiro[2.5]octan-6-yl}-4-{1-[2-(4,4-difluoropiperidin-1-yl)-6-methylpyrimidin-4-yl]-1H-1,2,3-triazol-4-yl}phenyl)-1-hydroxypropane-2-sulfonamide]", "values": [{"measurement": "IC50", "setting": "HT29 cells", "result": 50, "unit": "nM"}, {"measurement": "IC50", "setting": "OVCAR3 cells", "result": 93, "unit": "nM"}, {"measurement": "IC50", "setting": "[1]", "result": 232, "unit": "nM"}]}, {"molecule": "Cc1cc(N2CCC(F)(F)CC2)nc(-c2nnc(-c3ccc(NS(=O)(=O)CCO)cc3N3CCC4(CC3)CC4)o2)n1", "note": "[Example 27, N-(4-(5-(4-(4,4-difluoropiperidin-1-yl)-6-methylpyrimidin-2-yl)-1,3,4-oxadiazol-2-yl)-3-(6-azaspiro[2.5]octan-6-yl)phenyl)-2-hydroxyethanesulfonamide]", "values": [{"measurement": "IC50", "setting": "HT29 cells", "result": 24600, "unit": "nM"}, {"measurement": "IC50", "setting": "OVCAR3 cells", "result": 875, "unit": "nM"}, {"measurement": "IC50", "setting": "[1]", "result": 124, "unit": "nM"}]}, {"molecule": "CC(C)(O)c1cc(-c2cn(-c3ccc(NS(=O)(=O)CCO)cc3N3CCC4(CC3)CC4)nn2)nc(N2CCC(F)(F)CC2)n1", "note": "[Example 71, N-(4-(4-(2-(4,4-difluoropiperidin-1-yl)-6-(2-hydroxypropan-2-yl)pyrimidin-4-yl)-1H-1,2,3-triazol-1-yl)-3-(6-azaspiro[2.5]octan-6-yl)phenyl)-2-hydroxyethanesulfonamide]", "values": [{"measurement": "IC50", "setting": "HT29 cells", "result": 131, "unit": "nM"}, {"measurement": "IC50", "setting": "OVCAR3 cells", "result": 94, "unit": "nM"}, {"measurement": "IC50", "setting": "[1]", "result": 165, "unit": "nM"}]}, {"molecule": "Cc1cc(-c2cn(-c3ccc(NS(=O)(=O)CCO)cc3N3CCC4(CC3)CC4)nn2)nc(N2CCOCC2)n1", "note": "[Example 42, 2-hydroxy-N-(4-(4-(6-methyl-2-morpholinopyrimidin-4-yl)-1H-1,2,3-triazol-1-yl)-3-(6-azaspiro[2.5]octan-6-yl)phenyl)ethanesulfonamide]", "values": [{"measurement": "IC50", "setting": "HT29 cells", "result": 15, "unit": "nM"}, {"measurement": "IC50", "setting": "OVCAR3 cells", "result": 12, "unit": "nM"}, {"measurement": "IC50", "setting": "[1]", "result": 19, "unit": "nM"}]}, {"molecule": "Cc1cc(-n2nnc(-c3ccc(NS(=O)(=O)CCO)cc3N3CCC4(CC3)CC4)n2)cc(N2CCC(F)(F)CC2)n1", "note": "[Example 9, N-(4-(2-(2-(4,4-difluoropiperidin-1-yl)-6-methylpyridin-4-yl)-2H-tetrazol-5-yl)-3-(6-azaspiro[2.5]octan-6-yl)phenyl)-2-hydroxyethane-1-sulfonamide]", "values": [{"measurement": "IC50", "setting": "HT29 cells", "result": 165, "unit": "nM"}, {"measurement": "IC50", "setting": "OVCAR3 cells", "result": 107, "unit": "nM"}, {"measurement": "IC50", "setting": "[1]", "result": 312, "unit": "nM"}]}, {"molecule": "O=S(=O)(CCO)Nc1ccc(-n2cc(-c3cc4cccnc4c(N4CCC(F)(F)CC4)c3F)nn2)c(N2CCC3(CC2)CC3)c1", "note": "[Example 73, N-(3-{6-azaspiro[2.5]octan-6-yl}-4-{4-[8-(4,4-difluoropiperidin-1-yl)-7-fluoroquinolin-6-yl]-1H-1,2,3-triazol-1-yl}phenyl)-2-hydroxyethane-1-sulfonamide]", "values": [{"measurement": "IC50", "setting": "HT29 cells", "result": 63, "unit": "nM"}, {"measurement": "IC50", "setting": "OVCAR3 cells", "result": 34, "unit": "nM"}, {"measurement": "IC50", "setting": "[1]", "result": 271, "unit": "nM"}]}, {"molecule": "O=S(=O)(CCO)Nc1ccc(-n2cc(-c3cc(NCc4ccccn4)nc(N4CCC(F)(F)CC4)n3)nn2)c(N2CCC3(CC2)CC3)c1", "note": "[Example 59, N-(3-{6-azaspiro[2.5]octan-6-yl}-4-{4-[2-(4,4-difluoropiperidin-1-yl)-6-{[(pyridine-2-yl)methyl]amino}pyrimidin-4-yl]-1H-1,2,3-triazol-1-yl}phenyl)-2-hydroxyethane-1-sulfonamide]", "values": [{"measurement": "IC50", "setting": "HT29 cells", "result": 34, "unit": "nM"}, {"measurement": "IC50", "setting": "OVCAR3 cells", "result": 26, "unit": "nM"}, {"measurement": "IC50", "setting": "[1]", "result": 437, "unit": "nM"}]}, {"molecule": "Cn1cc(-c2ccc(-c3nnc(-c4ccc(NS(=O)(=O)CCO)cc4N4CCC5(CC4)CC5)o3)nc2N2CCC(F)(F)CC2)cn1", "note": "[Example 31, N-(4-(5-(6-(4,4-difluoropiperidin-1-yl)-5-(1-methyl-1H-pyrazol-4-yl)pyridin-2-yl)-1,3,4-oxadiazol-2-yl)-3-(6-azaspiro[2.5]octan-6-yl)phenyl)-2-hydroxyethane-1-sulfonamide]", "values": [{"measurement": "IC50", "setting": "HT29 cells", "result": 11, "unit": "nM"}, {"measurement": "IC50", "setting": "OVCAR3 cells", "result": 16, "unit": "nM"}, {"measurement": "IC50", "setting": "[1]", "result": 161, "unit": "nM"}]}, {"molecule": "Cc1cc(-c2nnc(-c3ccc(NS(=O)(=O)CCO)cc3N3CCC4(CC3)CC4)o2)c(F)c(N2CCC(F)(F)CC2)n1", "note": "[Example 23, N-(4-(5-(2-(4,4-difluoropiperidin-1-yl)-3-fluoro-6-methylpyridin-4-yl)-1,3,4-oxadiazol-2-yl)-3-(6-azaspiro[2.5]octan-6-yl)phenyl)-2-hydroxyethane-1-sulfonamide]", "values": [{"measurement": "IC50", "setting": "HT29 cells", "result": 118, "unit": "nM"}, {"measurement": "IC50", "setting": "OVCAR3 cells", "result": 115, "unit": "nM"}, {"measurement": "IC50", "setting": "[1]", "result": 153, "unit": "nM"}]}, {"molecule": "Cc1ccc2cc(-c3cn(-c4ccc(NS(=O)(=O)CCO)cc4N4CCC5(CC4)CC5)nn3)cc(N3CCC(F)(F)CC3)c2n1", "note": "[Example 74, N-(3-{6-azaspiro[2.5]octan-6-yl}-4-{4-[8-(4,4-difluoropiperidin-1-yl)-2-methylquinolin-6-yl]-1H-1,2,3-triazol-1-yl}phenyl)-2-hydroxyethane-1-sulfonamide]", "values": [{"measurement": "IC50", "setting": "HT29 cells", "result": 127, "unit": "nM"}, {"measurement": "IC50", "setting": "OVCAR3 cells", "result": 119, "unit": "nM"}, {"measurement": "IC50", "setting": "[1]", "result": 807, "unit": "nM"}]}, {"molecule": "O=S(=O)(CCO)Nc1ccc(/C(F)=C\\c2cc(N3CCC(F)(F)CC3)c3ncccc3c2)c(N2CCC3(CC2)CC3)c1", "note": "[Example 3, (E)-N-(4-(2-(8-(4,4-difluoropiperidin-1-yl)quinolin-6-yl)-1-fluorovinyl)-3-(6-azasppiro[2.5]octan-6-yl)phenyl)-2-hydroxyethane-1-sulfonamide]", "values": [{"measurement": "IC50", "setting": "HT29 cells", "result": 210, "unit": "nM"}, {"measurement": "IC50", "setting": "OVCAR3 cells", "result": 181, "unit": "nM"}, {"measurement": "IC50", "setting": "[1]", "result": 852, "unit": "nM"}]}, {"molecule": "O=S(=O)(CCO)Nc1ccc(-n2cc(-c3cc(NCc4cccnc4)nc(N4CCC(F)(F)CC4)n3)nn2)c(N2CCC3(CC2)CC3)c1", "note": "[Example 60, N-(3-{6-azaspiro[2.5]octan-6-yl}-4-{4-[2-(4,4-difluoropiperidin-1-yl)-6-{[(pyridine-3-yl)methyl]amino}pyrimidin-4-yl]-1H-1,2,3-triazol-1-yl}phenyl)-2-hydroxyethane-1-sulfonamide]", "values": [{"measurement": "IC50", "setting": "HT29 cells", "result": 41, "unit": "nM"}, {"measurement": "IC50", "setting": "OVCAR3 cells", "result": 29, "unit": "nM"}, {"measurement": "IC50", "setting": "[1]", "result": 433, "unit": "nM"}]}, {"molecule": "O=S(=O)(CCO)Nc1ccc(-n2cc(-c3cc(NCCO)nc(N4CCC(F)(F)CC4)n3)nn2)c(N2CCC3(CC2)CC3)c1", "note": "[Example 57, N-(3-{6-azaspiro[2.5]octan-6-yl}-4-{4-[2-(4,4-difluoropiperidin-1-yl)-6-[(2-hydroxyethyl)amino]pyrimidin-4-yl]-1H-1,2,3-triazol-1-yl}phenyl)-2-hydroxyethane-1-sulfonamide]", "values": [{"measurement": "IC50", "setting": "HT29 cells", "result": 4.5, "unit": "nM"}, {"measurement": "IC50", "setting": "OVCAR3 cells", "result": 8, "unit": "nM"}, {"measurement": "IC50", "setting": "[1]", "result": 72, "unit": "nM"}]}, {"molecule": "CNc1cc(-c2cn(-c3ccc(NS(=O)(=O)CCO)cc3N3CCC4(CC3)CC4)nn2)nc(N2CCC(F)(F)CC2)n1", "note": "[Example 56, N-(3-{6-azaspiro[2.5]octan-6-yl}-4-{4-[2-(4,4-difluoropiperidin-1-yl)-6-(methylamino)pyrimidin-4-yl]-1H-1,2,3-triazol-1-yl}phenyl)-2-hydroxyethane-1-sulfonamide]", "values": [{"measurement": "IC50", "setting": "HT29 cells", "result": 8, "unit": "nM"}, {"measurement": "IC50", "setting": "OVCAR3 cells", "result": 9, "unit": "nM"}, {"measurement": "IC50", "setting": "[1]", "result": 110, "unit": "nM"}]}, {"molecule": "COc1cc(-c2nnc(-c3ccc(NS(=O)(=O)CCO)cc3N3CCC4(CC3)CC4)o2)cc(N2CCC(F)(F)CC2)n1", "note": "[Example 22, N-(4-(5-(2-(4,4-difluoropiperidin-1-yl)-6-methoxypyridin-4-yl)-1,3,4-oxadiazol-2-yl)-3-(6-azaspiro[2.5]octan-6-yl)phenyl)-2-hydroxyethane-1-sulfonamide]", "values": [{"measurement": "IC50", "setting": "HT29 cells", "result": 23, "unit": "nM"}, {"measurement": "IC50", "setting": "OVCAR3 cells", "result": 34, "unit": "nM"}, {"measurement": "IC50", "setting": "[1]", "result": 46, "unit": "nM"}]}]}
